Measurements published in patent US20240246942A1, “KINASE INHIBITORS FOR THE TREATMENT OF NEURODEGENERATIVE DISEASES” (priority 2020, published 2024).

Key:
Test in all cases: biochemical
[1] = target: T1, panel of 374 wild-type kinases (Homo sapiens, UniProt Q8IU85); settings: read-out: % Enzyme Activity (relative to DMSO controls), CAMK1d
T1 construct: purchased Reaction Biology Corporation

[2] = target: T2, panel of 374 wild-type kinases (Homo sapiens, UniProt Q06418); settings: read-out: % Enzyme Activity (relative to DMSO controls), kinase TYRO3/SKY
T2 construct: purchased Reaction Biology Corporation
T2 sequence (Q06418 41-890): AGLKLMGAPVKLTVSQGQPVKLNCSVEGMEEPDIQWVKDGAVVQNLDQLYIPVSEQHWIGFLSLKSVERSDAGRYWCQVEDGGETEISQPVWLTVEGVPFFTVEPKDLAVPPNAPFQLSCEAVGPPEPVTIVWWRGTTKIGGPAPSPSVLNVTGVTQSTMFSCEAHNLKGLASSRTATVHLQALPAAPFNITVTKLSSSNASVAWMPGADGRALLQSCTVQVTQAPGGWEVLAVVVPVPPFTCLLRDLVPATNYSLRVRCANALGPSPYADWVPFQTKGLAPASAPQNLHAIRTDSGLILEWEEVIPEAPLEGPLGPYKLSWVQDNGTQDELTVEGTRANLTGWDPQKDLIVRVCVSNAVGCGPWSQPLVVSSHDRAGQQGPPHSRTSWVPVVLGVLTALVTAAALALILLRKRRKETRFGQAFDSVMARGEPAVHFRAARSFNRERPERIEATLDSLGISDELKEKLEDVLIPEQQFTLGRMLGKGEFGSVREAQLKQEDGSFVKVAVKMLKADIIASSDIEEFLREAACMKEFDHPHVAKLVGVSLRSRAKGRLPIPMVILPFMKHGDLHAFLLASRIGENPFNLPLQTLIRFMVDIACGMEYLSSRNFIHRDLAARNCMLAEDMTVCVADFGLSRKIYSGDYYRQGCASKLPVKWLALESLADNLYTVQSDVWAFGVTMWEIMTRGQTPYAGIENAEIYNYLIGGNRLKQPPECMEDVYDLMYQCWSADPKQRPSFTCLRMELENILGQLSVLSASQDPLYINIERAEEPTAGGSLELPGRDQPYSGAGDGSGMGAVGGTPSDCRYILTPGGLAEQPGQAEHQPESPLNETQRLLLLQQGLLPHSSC

[3] = target: T3, panel of 374 wild-type kinases (Homo sapiens, UniProt P51956); settings: read-out: % Enzyme Activity (relative to DMSO controls), NEK3
T3 construct: purchased Reaction Biology Corporation
T3 sequence (P51956 1-506): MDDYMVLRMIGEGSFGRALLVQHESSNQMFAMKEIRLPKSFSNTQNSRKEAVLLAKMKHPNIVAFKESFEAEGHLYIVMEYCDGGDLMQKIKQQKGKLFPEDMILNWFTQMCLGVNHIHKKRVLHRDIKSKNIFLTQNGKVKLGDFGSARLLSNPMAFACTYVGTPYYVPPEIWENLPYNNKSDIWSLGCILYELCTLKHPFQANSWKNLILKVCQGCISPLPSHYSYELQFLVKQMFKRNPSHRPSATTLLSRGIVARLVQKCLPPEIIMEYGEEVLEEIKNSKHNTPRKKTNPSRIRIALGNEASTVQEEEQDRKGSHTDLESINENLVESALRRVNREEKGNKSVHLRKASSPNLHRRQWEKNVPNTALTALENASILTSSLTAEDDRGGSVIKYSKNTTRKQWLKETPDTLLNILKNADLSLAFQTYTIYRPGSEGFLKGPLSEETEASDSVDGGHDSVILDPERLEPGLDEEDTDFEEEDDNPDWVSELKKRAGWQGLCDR

[4] = target: T4, panel of 374 wild-type kinases (Homo sapiens, UniProt Q9HC98); settings: read-out: % Enzyme Activity (relative to DMSO controls), NEK6
T4 construct: purchased Reaction Biology Corporation

[5] = target: T5, panel of 374 wild-type kinases (Homo sapiens, UniProt Q00537); settings: read-out: % Enzyme Activity (relative to DMSO controls), CDK17/cyclin Y (PCTK2)
T5 construct: purchased Reaction Biology Corporation

[6] = target: T6, panel of 374 wild-type kinases (Homo sapiens, UniProt Q04759); settings: read-out: % Enzyme Activity (relative to DMSO controls), kinase PKCtheta
T6 construct: purchased Reaction Biology Corporation

[7] = target: T7, panel of 374 wild-type kinases (Homo sapiens, UniProt O95819); settings: read-out: % Enzyme Activity (relative to DMSO controls), HGK/MAP4K4
T7 construct: purchased Reaction Biology Corporation

[8] = target: T8, panel of 374 wild-type kinases (Homo sapiens, UniProt P04049); settings: read-out: % Enzyme Activity (relative to DMSO controls), kinase RAF1
T8 construct: purchased Reaction Biology Corporation

[9] = target: T9, panel of 374 wild-type kinases (Homo sapiens, UniProt Q9BUB5); settings: read-out: % Enzyme Activity (relative to DMSO controls), MNK1
T9 construct: purchased Reaction Biology Corporation

[10] = target: T10, panel of 374 wild-type kinases (Homo sapiens, UniProt P09769); settings: read-out: % Enzyme Activity (relative to DMSO controls), FGR
T10 construct: purchased Reaction Biology Corporation

[11] = target: T11, panel of 374 wild-type kinases (Homo sapiens, UniProt Q6DT37); settings: read-out: % Enzyme Activity (relative to DMSO controls), DMPK2
T11 construct: purchased Reaction Biology Corporation

[12] = target: T12, panel of 374 wild-type kinases (Homo sapiens, UniProt Q16644); settings: read-out: % Enzyme Activity (relative to DMSO controls), MAPKAPK3
T12 construct: purchased Reaction Biology Corporation

[13] = target: T13, panel of 374 wild-type kinases (Homo sapiens, UniProt O75914); settings: read-out: % Enzyme Activity (relative to DMSO controls), kinase PAK3
T13 construct: purchased Reaction Biology Corporation

[14] = target: T14, panel of 374 wild-type kinases (Homo sapiens, UniProt Q15208); settings: read-out: % Enzyme Activity (relative to DMSO controls), kinase STK38/NDR1
T14 construct: purchased Reaction Biology Corporation
T14 sequence (Q15208 whole entry): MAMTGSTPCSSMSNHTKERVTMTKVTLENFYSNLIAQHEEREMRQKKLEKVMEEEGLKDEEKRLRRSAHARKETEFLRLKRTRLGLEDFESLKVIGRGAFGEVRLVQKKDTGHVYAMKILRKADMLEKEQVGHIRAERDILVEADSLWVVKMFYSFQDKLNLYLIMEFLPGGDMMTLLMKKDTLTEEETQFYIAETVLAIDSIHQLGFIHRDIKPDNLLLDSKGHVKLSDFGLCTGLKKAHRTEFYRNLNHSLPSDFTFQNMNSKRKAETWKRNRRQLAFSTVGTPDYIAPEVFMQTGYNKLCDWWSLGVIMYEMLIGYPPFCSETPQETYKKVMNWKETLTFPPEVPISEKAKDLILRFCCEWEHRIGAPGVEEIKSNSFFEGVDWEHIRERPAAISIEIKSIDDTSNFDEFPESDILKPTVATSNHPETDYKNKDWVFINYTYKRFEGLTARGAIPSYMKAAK

T8 sequence (P04049 whole entry): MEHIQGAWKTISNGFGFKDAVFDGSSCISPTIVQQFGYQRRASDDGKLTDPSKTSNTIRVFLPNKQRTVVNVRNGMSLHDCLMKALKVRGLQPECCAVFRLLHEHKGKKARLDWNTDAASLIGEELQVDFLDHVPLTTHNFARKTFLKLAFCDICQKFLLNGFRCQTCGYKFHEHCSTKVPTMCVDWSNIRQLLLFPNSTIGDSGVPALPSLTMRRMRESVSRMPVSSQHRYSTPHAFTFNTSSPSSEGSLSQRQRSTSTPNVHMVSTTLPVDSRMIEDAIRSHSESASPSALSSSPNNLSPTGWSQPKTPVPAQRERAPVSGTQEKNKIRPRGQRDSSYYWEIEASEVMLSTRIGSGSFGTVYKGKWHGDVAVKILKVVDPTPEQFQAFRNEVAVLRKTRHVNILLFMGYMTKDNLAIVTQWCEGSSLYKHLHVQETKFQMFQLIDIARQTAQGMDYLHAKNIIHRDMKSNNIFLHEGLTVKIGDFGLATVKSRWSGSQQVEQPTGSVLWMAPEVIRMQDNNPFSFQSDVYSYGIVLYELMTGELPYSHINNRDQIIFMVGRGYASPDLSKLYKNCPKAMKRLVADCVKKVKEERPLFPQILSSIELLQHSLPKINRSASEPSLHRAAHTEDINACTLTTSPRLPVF
T9 sequence (Q9BUB5 whole entry): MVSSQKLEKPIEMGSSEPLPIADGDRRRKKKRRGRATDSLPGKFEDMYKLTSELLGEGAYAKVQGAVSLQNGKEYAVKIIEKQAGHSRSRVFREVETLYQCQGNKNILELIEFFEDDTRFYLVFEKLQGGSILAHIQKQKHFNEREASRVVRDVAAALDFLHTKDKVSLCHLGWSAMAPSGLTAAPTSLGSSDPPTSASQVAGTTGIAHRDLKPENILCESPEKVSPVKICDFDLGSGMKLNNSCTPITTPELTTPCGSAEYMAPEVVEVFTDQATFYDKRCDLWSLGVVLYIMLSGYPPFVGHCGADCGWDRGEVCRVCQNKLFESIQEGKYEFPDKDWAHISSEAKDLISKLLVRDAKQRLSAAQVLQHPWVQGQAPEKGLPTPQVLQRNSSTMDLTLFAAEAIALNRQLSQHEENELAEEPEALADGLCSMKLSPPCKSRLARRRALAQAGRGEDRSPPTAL
T11 sequence (Q6DT37 whole entry): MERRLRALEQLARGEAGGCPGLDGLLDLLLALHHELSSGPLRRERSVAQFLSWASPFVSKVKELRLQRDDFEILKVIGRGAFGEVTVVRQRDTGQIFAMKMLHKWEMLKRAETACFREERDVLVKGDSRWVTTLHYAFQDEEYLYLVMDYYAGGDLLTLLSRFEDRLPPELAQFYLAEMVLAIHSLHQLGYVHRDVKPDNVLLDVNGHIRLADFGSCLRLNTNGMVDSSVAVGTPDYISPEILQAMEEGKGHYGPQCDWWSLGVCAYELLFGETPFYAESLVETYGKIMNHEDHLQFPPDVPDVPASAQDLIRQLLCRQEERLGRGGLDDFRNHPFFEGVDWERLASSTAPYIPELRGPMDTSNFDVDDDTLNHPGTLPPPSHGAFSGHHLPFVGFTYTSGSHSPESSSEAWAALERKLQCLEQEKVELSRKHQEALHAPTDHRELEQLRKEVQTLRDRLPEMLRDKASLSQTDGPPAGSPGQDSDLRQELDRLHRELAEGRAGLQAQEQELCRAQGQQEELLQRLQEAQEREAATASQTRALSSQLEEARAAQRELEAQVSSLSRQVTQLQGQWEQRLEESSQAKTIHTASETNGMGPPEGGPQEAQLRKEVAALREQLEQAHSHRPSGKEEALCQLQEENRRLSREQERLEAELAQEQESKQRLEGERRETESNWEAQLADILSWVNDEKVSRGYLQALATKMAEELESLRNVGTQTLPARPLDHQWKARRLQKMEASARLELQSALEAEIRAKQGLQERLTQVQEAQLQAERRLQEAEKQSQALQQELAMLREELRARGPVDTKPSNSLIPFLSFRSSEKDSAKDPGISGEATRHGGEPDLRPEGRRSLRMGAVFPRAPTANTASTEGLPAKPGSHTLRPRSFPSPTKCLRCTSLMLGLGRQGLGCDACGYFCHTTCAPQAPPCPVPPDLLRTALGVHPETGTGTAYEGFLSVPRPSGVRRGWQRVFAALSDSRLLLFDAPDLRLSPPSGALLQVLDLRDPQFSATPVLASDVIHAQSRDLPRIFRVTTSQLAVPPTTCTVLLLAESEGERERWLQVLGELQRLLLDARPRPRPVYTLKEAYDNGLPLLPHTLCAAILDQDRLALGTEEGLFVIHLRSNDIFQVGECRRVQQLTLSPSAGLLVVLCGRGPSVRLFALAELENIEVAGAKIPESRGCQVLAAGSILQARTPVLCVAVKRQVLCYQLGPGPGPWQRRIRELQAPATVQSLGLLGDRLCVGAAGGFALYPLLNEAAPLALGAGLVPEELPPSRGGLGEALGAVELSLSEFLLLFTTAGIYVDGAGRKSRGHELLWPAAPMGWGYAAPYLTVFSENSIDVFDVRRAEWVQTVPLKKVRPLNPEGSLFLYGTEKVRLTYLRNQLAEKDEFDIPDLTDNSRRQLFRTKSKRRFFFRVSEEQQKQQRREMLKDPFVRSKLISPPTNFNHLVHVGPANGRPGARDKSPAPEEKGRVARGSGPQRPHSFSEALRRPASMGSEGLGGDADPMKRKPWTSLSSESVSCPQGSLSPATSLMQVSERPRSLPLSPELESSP
T12 sequence (Q16644 whole entry): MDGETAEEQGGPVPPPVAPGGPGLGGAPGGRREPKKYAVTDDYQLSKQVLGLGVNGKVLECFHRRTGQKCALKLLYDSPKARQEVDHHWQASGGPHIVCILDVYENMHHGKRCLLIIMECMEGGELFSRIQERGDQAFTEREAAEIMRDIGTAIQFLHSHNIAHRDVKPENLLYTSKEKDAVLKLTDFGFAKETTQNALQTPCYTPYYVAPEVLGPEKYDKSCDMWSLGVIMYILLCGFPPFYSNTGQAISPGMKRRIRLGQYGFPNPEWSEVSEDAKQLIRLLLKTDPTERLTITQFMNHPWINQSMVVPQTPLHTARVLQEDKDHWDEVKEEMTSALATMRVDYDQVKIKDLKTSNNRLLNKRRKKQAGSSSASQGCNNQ
T7 sequence (O95819 whole entry): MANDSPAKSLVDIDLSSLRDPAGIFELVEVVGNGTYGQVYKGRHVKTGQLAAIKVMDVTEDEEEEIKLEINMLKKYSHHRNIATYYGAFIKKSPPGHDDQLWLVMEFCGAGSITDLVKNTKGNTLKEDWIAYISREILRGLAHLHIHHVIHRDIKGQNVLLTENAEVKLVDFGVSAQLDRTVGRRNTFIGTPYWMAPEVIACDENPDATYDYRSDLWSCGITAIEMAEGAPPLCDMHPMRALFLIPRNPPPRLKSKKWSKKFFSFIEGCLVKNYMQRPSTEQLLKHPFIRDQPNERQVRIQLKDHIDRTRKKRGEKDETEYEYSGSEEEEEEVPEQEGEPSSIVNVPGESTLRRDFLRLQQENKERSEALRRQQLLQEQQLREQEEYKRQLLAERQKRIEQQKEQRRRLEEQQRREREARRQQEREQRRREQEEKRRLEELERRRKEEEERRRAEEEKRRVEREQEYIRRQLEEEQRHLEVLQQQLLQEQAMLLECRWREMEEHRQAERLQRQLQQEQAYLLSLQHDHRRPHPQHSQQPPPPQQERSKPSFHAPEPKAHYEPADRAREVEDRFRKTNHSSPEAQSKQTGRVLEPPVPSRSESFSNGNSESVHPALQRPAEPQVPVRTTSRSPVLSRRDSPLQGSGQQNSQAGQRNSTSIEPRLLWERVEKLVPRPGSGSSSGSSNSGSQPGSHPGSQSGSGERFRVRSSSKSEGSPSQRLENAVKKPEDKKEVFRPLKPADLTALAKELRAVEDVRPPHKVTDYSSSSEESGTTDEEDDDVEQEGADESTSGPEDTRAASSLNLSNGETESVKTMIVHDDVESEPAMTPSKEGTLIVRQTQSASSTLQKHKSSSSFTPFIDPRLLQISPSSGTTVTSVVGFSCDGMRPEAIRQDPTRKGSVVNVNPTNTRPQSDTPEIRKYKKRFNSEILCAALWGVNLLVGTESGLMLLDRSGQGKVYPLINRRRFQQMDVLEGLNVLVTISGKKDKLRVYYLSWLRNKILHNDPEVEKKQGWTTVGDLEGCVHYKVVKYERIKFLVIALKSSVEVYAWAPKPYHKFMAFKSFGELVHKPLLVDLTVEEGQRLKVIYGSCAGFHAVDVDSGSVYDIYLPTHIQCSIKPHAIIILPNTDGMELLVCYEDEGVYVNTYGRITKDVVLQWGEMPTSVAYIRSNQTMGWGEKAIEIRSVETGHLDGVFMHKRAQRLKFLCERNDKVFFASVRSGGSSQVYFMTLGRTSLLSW
T4 sequence (Q9HC98 whole entry): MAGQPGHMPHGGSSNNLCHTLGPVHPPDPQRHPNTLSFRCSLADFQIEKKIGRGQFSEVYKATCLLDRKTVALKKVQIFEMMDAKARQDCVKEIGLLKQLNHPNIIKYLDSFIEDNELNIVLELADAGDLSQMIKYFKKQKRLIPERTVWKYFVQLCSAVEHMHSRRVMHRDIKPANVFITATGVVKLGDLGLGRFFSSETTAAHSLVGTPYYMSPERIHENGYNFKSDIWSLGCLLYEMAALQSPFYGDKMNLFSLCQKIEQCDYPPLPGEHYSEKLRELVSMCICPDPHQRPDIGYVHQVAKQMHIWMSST

Structure (SMILES)	remaining activity at 5 µM [1]	remaining activity at 5 µM [2]	remaining activity at 5 µM [3]	remaining activity at 5 µM [4]	remaining activity at 5 µM [5]	remaining activity at 5 µM [6]	remaining activity at 5 µM [7]	remaining activity at 5 µM [8]	remaining activity at 5 µM [9]	remaining activity at 5 µM [10]	remaining activity at 5 µM [11]	remaining activity at 5 µM [12]	remaining activity at 5 µM [13]	remaining activity at 5 µM [14]	further results
Cc1sc(C(=O)NC2COC2)cc1-n1cc(NC(=O)Nc2c(F)cccc2Cl)cn1 [Compound 27, 4-(4-(3-(2-chloro-6-fluorophenyl)ureido)-1H-pyrazol-1-yl)-5-methyl-N-(oxetan-3-yl)thiophene-2-carboxamide]	–	–	–	–	–	–	–	–	–	–	–	–	–	–	remaining activity at 10 µM ([1]; 10 uM): 105%; remaining activity at 10 µM ([2]; 10 uM): 98.8%; remaining activity at 10 µM ([3]; 10 uM): 87.5%; remaining activity at 10 µM ([4]; 10 uM): 93.3%; remaining activity at 10 µM ([5]; 10 uM): 102%; remaining activity at 10 µM ([6]; 10 uM): 96.9%; remaining activity at 10 µM ([7]; 10 uM): 93.4%; remaining activity at 10 µM ([8]; 10 uM): 92.6%; remaining activity at 10 µM ([9]; 10 uM): 94.2%; remaining activity at 10 µM ([10]; 10 uM): 80.2%; remaining activity at 10 µM ([11]; 10 uM): 118%; remaining activity at 10 µM ([12]; 10 uM): 110%; remaining activity at 10 µM ([13]; 10 uM): 114%; remaining activity at 10 µM ([14]; 10 uM): 91.5%
O=C(Nc1cnn(-c2csc(C(=O)NC3COC3)c2)c1)Nc1c(F)cccc1Cl [Compound 25, 4-(4-(3-(2-chloro-6-fluorophenyl)ureido)-1H-pyrazol-1-yl)-N-(oxetan-3-yl)thiophene-2-carboxamide]	99.6%	68.4%	87.2%	87.2%	96%	94.7%	90.4%	92.5%	103%	95.5%	119%	95.6%	64.2%	95.5%	–
O=C(Nc1cnn(-c2csc(C(=O)NC3COC3)c2)c1)Nc1ccccc1Cl [Compound 17, 4-(4-(3-(2-chlorophenyl)ureido)-1H-pyrazol-1-yl)-N-(oxetan-3-yl)thiophene-2-carboxamide]	104%	75.4%	103%	103%	106%	114%	81.1%	87%	94.3%	90%	87%	83.5%	97.4%	99.2%	–
